Test results published in the supplement of paper PMC11061612.

Assays:
[1] = compound: C1CC(C1)(C(=O)[O-])C(=O)[O-].N.N.[Pt+2] [Carboplatin]; details: max 10 µM
Summary of the method: (§1)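 Plates with 1536 wells received cancer cell lines in 7.5 μl of DMEM/F12 or RPMI containing 10% FBS. After 24 hours at 37°C and 5% CO2, cells were dosed for 72 hours with final DMSO typically 0.2%, and viability was read by CellTiter-Glo 2.0 luminescence scaled between blank-well and DMSO-well means. The single-agent IC50 was taken from a logistic fit of the dose responses made with a non-linear mixed effects model, that logistic curve having two parameters.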

[2] = compound: C1CN(CCC1(C(=O)N[C@@H](CCO)C2=CC=C(C=C2)Cl)N)C3=NC=NC4=C3C=CN4 [AZD5363]; details: max 10 µM
Summary of the method: as §1

[3] = compound: C=CCn1c(=O)c2cnc(Nc3ccc(N4CCN(C)CC4)cc3)nc2n1-c1cccc(C(C)(C)O)n1 [AZD1775]; details: max 3 µM
Summary of the method: as §1

[4] = compound: CC(=O)Nc1cccc(-n2c(=O)n(C3CC3)c(=O)c3c(Nc4ccc(I)cc4F)n(C)c(=O)c(C)c32)c1 [Trametinib]; details: max 1 µM
Summary of the method: as §1

[5] = compound: CC(=O)O[C@H]1C(=O)[C@@]2(C)[C@H]([C@H](OC(=O)c3ccccc3)[C@]3(O)C[C@H](OC(=O)[C@H](O)[C@@H](NC(=O)c4ccccc4)c4ccccc4)C(C)=C1C3(C)C)[C@]1(OC(C)=O)CO[C@@H]1C[C@@H]2O [Paclitaxel]; details: max 3 µM
Summary of the method: as §1

[6] = compound: CC(=O)c1c(C)c2cnc(Nc3ccc(N4CCNCC4)cn3)nc2n(C2CCCC2)c1=O [Palbociclib]; details: max 10 µM
Summary of the method: as §1

[7] = compound: CC(C)n1c(=O)n(C)c2cnc3cc(F)c(-c4ccc(OCCCN5CCCCC5)nc4)cc3c21 [AZD1390]; details: max 0.3 µM
Summary of the method: as §1

[8] = compound: CC1(C)CCC(CN2CCN(c3ccc(C(=O)NS(=O)(=O)c4ccc(NCC5CCOCC5)c([N+](=O)[O-])c4)c(Oc4cnc5[nH]ccc5c4)c3)CC2)=C(c2ccc(Cl)cc2)C1 [Venetoclax]; details: max 1 µM
Summary of the method: as §1

[9] = compound: CC1=C(C(=CC=C1)Cl)NC(=O)C2=CN=C(S2)NC3=CC(=NC(=N3)C)N4CCN(CC4)CCO [Dasatinib]; details: max 2 µM
Summary of the method: as §1

[10] = compound: CC1=CN2[C@@H](C1)C=NC3=CC(=C(C=C3C2=O)OC)OCCCCCOC4=C(C=C5C(=C4)N=C[C@@H]6CC(=CN6C5=O)C)OC [SG3199]; details: max 0.001 µM
Summary of the method: as §1

[11] = compound: CCN(CCO)CCCOc1ccc2c(Nc3cc(CC(=O)Nc4cccc(F)c4)[nH]n3)ncnc2c1 [AZD2811]; details: max 1 µM
Summary of the method: as §1

[12] = compound: CCc1c2c(nc3ccc(O)cc13)-c1cc3c(c(=O)n1C2)COC(=O)[C@]3(O)CC [SN-38]; details: max 0.3 µM
Summary of the method: as §1

[13] = compound: CN(C)CCCOc1ccc(-c2ccc3ncc4c(c3c2)n(C2CCOCC2)c(=O)n4C)cn1 [AZD0156]; details: max 3 µM
Summary of the method: as §1

[14] = compound: CN(CC[C@H](CSC1=CC=CC=C1)NC2=C(C=C(C=C2)S(=O)(=O)NC(=O)C3=CC=C(C=C3)N4CCC(CC4)[C@H](C5=CC=CC=C5C6=CC=C(C=C6)Cl)O)S(=O)(=O)C(F)(F)F)CCO [AZD4320]; details: max 1 µM
Summary of the method: as §1

[15] = compound: COc1cc(Nc2ncc3c(n2)-c2ccc(Cl)cc2C(c2c(F)cccc2OC)=NC3)ccc1C(=O)O [Alisertib]; details: max 10 µM
Summary of the method: as §1

[16] = compound: COc1cc([C@@H]2c3cc4c(cc3[C@@H](O[C@@H]3O[C@@H]5CO[C@@H](C)O[C@H]5[C@H](O)[C@H]3O)[C@H]3COC(=O)[C@H]23)OCO4)cc(OC)c1O [Etoposide]; details: max 10 µM
Summary of the method: as §1

[17] = compound: COc1cc2ncnc(Nc3ccc(F)c(Cl)c3)c2cc1OCCCN1CCOCC1 [Gefitinib]; details: max 10 µM
Summary of the method: as §1

[18] = compound: COc1cccc(OCCCN)c1-c1cc(Nc2cnc(C#N)cn2)n[nH]1 [Prexasertib]; details: max 1 µM
Summary of the method: as §1

[19] = compound: COc1cccc2c1C(=O)c1c(O)c3c(c(O)c1C2=O)C[C@@](O)(C(=O)CO)C[C@@H]3O[C@H]1C[C@H](N)[C@H](O)[C@H](C)O1 [Doxorubicin]; details: max 1 µM
Summary of the method: as §1

[20] = compound: COc1nnc2ccc(N3CCC(c4ccc(OCCN5CCN(C)C(=O)[C@H]5C)cc4)CC3)nn12 [AZD5153]; details: max 1 µM
Summary of the method: as §1

[21] = compound: CS(=O)(=O)CCNCc1ccc(-c2ccc3ncnc(Nc4ccc(OCc5cccc(F)c5)c(Cl)c4)c3c2)o1 [Lapatinib]; details: max 10 µM
Summary of the method: as §1

[22] = compound: C[C@@H](Nc1cc(F)cc(F)c1)c1cc(C(=O)N(C)C)cc2c(=O)cc(N3CCOCC3)oc12 [AZD8186]; details: max 10 µM
Summary of the method: as §1

[23] = compound: C[C@@H](Oc1cc(-c2cnn(C3CCNCC3)c2)cnc1N)c1c(Cl)ccc(F)c1Cl [Crizotinib]; details: max 10 µM
Summary of the method: as §1

[24] = compound: C[C@@H](c1ccc2nccn2c1)n1nnc2ncc(-c3cnn(C)c3)nc21 [Savolitinib]; details: max 1 µM
Summary of the method: as §1

[25] = compound: C[C@@H]1COCCN1C2=NC(=NC(=C2)C3(CC3)[S@](=N)(=O)C)C4=C5C=CNC5=NC=C4 [AZD6738]; details: max 10 µM
Summary of the method: as §1

[26] = compound: Cc1c2c(nn1C)CSCc1cc(n(C)n1)CSc1cc(c3ccccc3c1)OCCCc1c(C(=O)O)n(C)c3c-2c(Cl)ccc13 [AZD5991]; details: max 1 µM
Summary of the method: as §1

[27] = compound: Cc1cc2ncnn2cc1Nc1ncc2c(n1)n(C1CCOCC1)c(=O)n2C [AZD7648]; details: max 10 µM
Summary of the method: as §1

[28] = compound: Cc1nc(-c2cn3c(n2)-c2ccc(-c4cnn(C(C)(C)C(N)=O)c4)cc2OCC3)n(C(C)C)n1 [Taselisib]; details: max 10 µM
Summary of the method: as §1

[29] = compound: Cn1cnc2c(F)c(Nc3ccc(Br)cc3Cl)c(C(=O)NOCCO)cc21 [Selumetinib]; details: max 10 µM
Summary of the method: as §1

[30] = compound: N#Cc1cnc(Nc2cc(NC[C@H]3CNCCO3)c(C(F)(F)F)cn2)cn1 [SRA737]; details: max 10 µM
Summary of the method: as §1

[31] = compound: NC1(c2ccc(-c3nc4ccn5c(=O)[nH]nc5c4cc3-c3ccccc3)cc2)CCC1 [MK-2206]; details: max 10 µM
Summary of the method: as §1

[32] = compound: Nc1ccn([C@@H]2O[C@H](CO)[C@@H](O)C2(F)F)c(=O)n1 [Gemcitabine]; details: max 0.3 µM
Summary of the method: as §1

[33] = compound: O=C(Nc1ccc2[nH]nc(-c3ccncc3)c2c1)[C@@H]1CCN(CC(=O)N2CCN(c3ccc(-c4ncccn4)cc3)CC2)C1; details: max 5 µM
Summary of the method: as §1

[34] = compound: O=C(c1cc(Cc2n[nH]c(=O)c3ccccc23)ccc1F)N1CCN(C(=O)C2CC2)CC1 [Olaparib]; details: max 10 µM
Summary of the method: as §1

[35] = compound: O=c1[nH]cc(F)c(=O)[nH]1 [5-Fluorouracil]; details: max 20 µM
Summary of the method: as §1

Cell Line | IC50, cell viability 72 h [1] | IC50, cell viability 72 h [2] | IC50, cell viability 72 h [3] | IC50, cell viability 72 h [4] | IC50, cell viability 72 h [5] | IC50, cell viability 72 h [6] | IC50, cell viability 72 h [7] | IC50, cell viability 72 h [8] | IC50, cell viability 72 h [9] | IC50, cell viability 72 h [10] | IC50, cell viability 72 h [11] | IC50, cell viability 72 h [12] | IC50, cell viability 72 h [13] | IC50, cell viability 72 h [14] | IC50, cell viability 72 h [15] | IC50, cell viability 72 h [16] | IC50, cell viability 72 h [17] | IC50, cell viability 72 h [18] | IC50, cell viability 72 h [19] | IC50, cell viability 72 h [20] | IC50, cell viability 72 h [21] | IC50, cell viability 72 h [22] | IC50, cell viability 72 h [23] | IC50, cell viability 72 h [24] | IC50, cell viability 72 h [25] | IC50, cell viability 72 h [26] | IC50, cell viability 72 h [27] | IC50, cell viability 72 h [28] | IC50, cell viability 72 h [29] | IC50, cell viability 72 h [30] | IC50, cell viability 72 h [31] | IC50, cell viability 72 h [32] | IC50, cell viability 72 h [33] | IC50, cell viability 72 h [34] | IC50, cell viability 72 h [35]
MEG-01 (Chronic Myelogenous Leukemia) | > 10000 nM | > 10000 nM | 292 nM | 38.9 nM | 158 nM | > 10000 nM | > 300 nM | > 1000 nM | < 2 nM | > 1 nM | 776 nM | 74.4 nM | > 3000 nM | 309 nM | 3120 nM | 4890 nM | > 10000 nM | 8.09 nM | 540 nM | 83.2 nM | > 10000 nM | > 10000 nM | 828 nM | > 1000 nM | 812 nM | > 1000 nM | > 10000 nM | > 10000 nM | 3410 nM | 1180 nM | > 10000 nM | 51.4 nM | 1220 nM | > 10000 nM | > 20000 nM
MSTO-211H (Mesothelioma) | > 10000 nM | > 10000 nM | > 3000 nM | 874 nM | 2950 nM | > 10000 nM | > 300 nM | > 1000 nM | > 2000 nM | > 1 nM | > 1000 nM | 47 nM | > 3000 nM | > 1000 nM | 3840 nM | 9060 nM | > 10000 nM | 54.4 nM | 857 nM | > 1000 nM | > 10000 nM | > 10000 nM | > 10000 nM | > 1000 nM | 7720 nM | > 1000 nM | > 10000 nM | > 10000 nM | > 10000 nM | > 10000 nM | > 10000 nM | 21.9 nM | > 5000 nM | > 10000 nM | > 20000 nM
NOMO-1 (Acute Myeloid Leukemia) | > 10000 nM | > 10000 nM | 215 nM | 3.07 nM | 7.09 nM | 6660 nM | > 300 nM | 627 nM | > 2000 nM | > 1 nM | 905 nM | 7.23 nM | > 3000 nM | > 1000 nM | 4160 nM | 2120 nM | > 10000 nM | 5.79 nM | 542 nM | 50.4 nM | > 10000 nM | 9000 nM | 8600 nM | > 1000 nM | 1660 nM | 210 nM | > 10000 nM | 1510 nM | 138 nM | 1160 nM | > 10000 nM | 10.1 nM | 591 nM | > 10000 nM | 2210 nM
